How the values were obtained:
Ramos cells = assay: Cytotoxicity (cell death) in Ramos cells; assay type: cell-based
Method: (§1) The compounds listed in Table 9 were tested for activity against F1F0-ATPase by measuring ATP synthesis and ATP hydrolysis. In addition, the compounds were assessed for cytotoxicity in Ramos cells Inhibition of ATP synthesis and hydrolysis by the F1F0-ATPase and cytotoxicity in Ramos cells was measured as described in K. M. Johnson et al. Chemistry & Biology 2005, 12, 485-496.

F1F0-ATPase [1] = target: T1, F1F0-ATPase (Bos taurus, UniProt P13621); assay: Inhibition of ATP synthesis by the F1F0-ATPase; assay type: biochemical; conditions: IC40: concentration for 40% inhibition
Method: as §1

F1F0-ATPase [2] = target: T1, F1F0-ATPase; assay: Inhibition of ATP hydrolysis by the F1F0-ATPase; assay type: biochemical; conditions: IC40: concentration for 40% inhibition
Method: as §1

| Compound | EC50 (Ramos cells; Ramos cells) [µM] | ATP Synthesis (IC40 μM) (F1F0-ATPase [1]) [µM] | ATP Hydrolysis (IC40 μM) (F1F0-ATPase [2]) [µM] | EC50 (Ramos cells; Homo sapiens, Ramos) [µM] |
| --- | --- | --- | --- | --- |
| Cc1cccc(C(=O)N=C(NCCc2c[nH]cn2)Nc2ccc(-c3ccccc3)cc2)c1 [II-2, (Z/E)-N-((2-(1H-imidazol-4-yl)ethylamino)(biphenyl-4-ylamino)methylene)-3-methylbenzamide] | > 30 | >10 | >10 | – |
| O=C(N=C(NCCc1c[nH]cn1)Nc1ccccc1-c1ccccc1)c1ccccc1Cl [Compound I-1, (Z/E)-N-((2-(1H-imidazol-4-yl)ethylamino)(biphenyl-2-ylamino)methylene)-2-chlorobenzamide] | > 30 | >20 | >30 | – |
| COc1cccc(-c2ccc(NC(=NC(=O)c3cccc(Cl)c3)NCCc3c[nH]cn3)cc2)c1 [III-34, (Z/E)-N-((2-(1H-imidazol-4-yl)ethylamino)(3′-methoxybiphenyl-4-ylamino)methylene)-3-chlorobenzamide] | < 10 | <10 | >10 | – |
| O=C(N=C(NCCc1c[nH]cn1)Nc1cccc(-c2ccccc2)c1)c1cccc([N+](=O)[O-])c1 [VI-12, (Z/E)-N-((2-(1H-imidazol-4-yl)ethylamino)(biphenyl-3-ylamino)methylene)-3-nitrobenzamide] | > 10 | <10 | >30 | – |
| COc1cccc(NC(=NC(=O)c2cccc(Cl)c2)NCCc2c[nH]cn2)c1 [III-12, (Z/E)-N-((2-(1H-imidazol-4-yl)ethylamino)(3-methoxyphenylamino)methylene)-3-chlorobenzamide] | > 30 | >20 | >30 | – |
| O=C(N=C(NCCc1c[nH]cn1)Nc1ccc(-c2ccc(Cl)cc2)cc1)c1cccc(Cl)c1 [III-29, (Z/E)-N-((2-(1H-imidazol-4-yl)ethylamino)(4′-chlorobiphenyl-4-ylamino)methylene)-3-chlorobenzamide] | < 10 | >10 | >10 | – |
| Cc1cccc(NC(=NC(=O)c2cccc(Cl)c2)NCCc2c[nH]cn2)c1 [III-9, (Z/E)-N-((2-(1H-imidazol-4-yl)ethylamino)(m-toluidino)methylene)-3-chlorobenzamide] | > 30 | >10 | >20 | – |
| CS(=O)(=O)c1ccccc1NC(=NC(=O)c1cccc(Cl)c1)NCCc1cnc[nH]1 [III-38, (Z/E)-N-((2-(1H-imidazol-5-yl)ethylamino)(2-(methylsulfonyl)phenylamino)methylene)-3-chlorobenzamide] | > 30 | >20 | >30 | – |
| N#Cc1ccc(C(=O)N=C(NCCc2c[nH]cn2)Nc2ccc(-c3ccccc3)cc2)cc1 [II-7, (Z/E)-N-((2-(1H-imidazol-4-yl)ethylamino)(biphenyl-4-ylamino)methylene)-4-cyanobenzamide] | > 30 | >20 | >10 | – |
| O=C(N=C(NCCc1c[nH]cn1)Nc1ccc(-c2ccccc2)cc1)c1cccc(C(F)(F)F)c1 [II-4, (Z/E)-N-((2-(1H-imidazol-4-yl)ethylamino)(biphenyl-4-ylamino)methylene)-3-(trifluoromethyl)benzamide] | < 10 | >10 | >10 | – |
| Cc1ccc(NC(=NC(=O)c2cccc(Cl)c2)NCCc2c[nH]cn2)cc1 [III-10, (Z/E)-N-((2-(1H-imidazol-4-yl)ethylamino)(p-toluidino)methylene)-3-chlorobenzamide] | > 10 | >10 | >20 | – |
| O=C(N=C(NCCc1c[nH]cn1)Nc1ccccc1-c1ccccc1)c1ccccc1 [Compound I-7, (Z/E)-N-((2-(1H-imidazol-4-yl)ethylamino)(biphenyl-2-ylamino)methylene)benzamide] | > 30 | >20 | >30 | – |
| O=C(N=C(NCCc1c[nH]cn1)Nc1cccc(Cl)c1)c1cccc(Cl)c1 [III-18, (Z/E)-N-((2-(1H-imidazol-4-yl)ethylamino)(3-chlorophenylamino)methylene)-3-chlorobenzamide] | > 10 | >10 | >20 | – |
| COc1ccccc1NC(=NC(=O)c1cccc(Cl)c1)NCCc1c[nH]cn1 [III-11, (Z/E)-N-((2-(1H-imidazol-4-yl)ethylamino)(2-methoxyphenylamino)methylene)-3-chlorobenzamide] | > 30 | >10 | >30 | – |
| Cc1cccc(C(=O)N=C(NCCc2c[nH]cn2)Nc2cccc(-c3ccccc3)c2)c1 [VI-2, (Z/E)-N-((2-(1H-imidazol-4-yl)ethylamino)(biphenyl-3-ylamino)methylene)-3-methylbenzamide] | > 10 | <10 | >10 | – |
| O=C(/N=C(/NCc1cccc2[nH]ccc12)Nc1ccc(-c2ccccc2)cc1)c1cccc(Cl)c1 [IV-9] | – | >20 | >30 | > 30 |
| O=C(N=C(NCCc1c[nH]cn1)Nc1ccc(Cl)cc1)c1cccc(Cl)c1 [III-19, (Z/E)-N-((2-(1H-imidazol-4-yl)ethylamino)(4-chlorophenylamino)methylene)-3-chlorobenzamide] | > 10 | >10 | >30 | – |
| O=C(N=C(NCCc1c[nH]cn1)Nc1cccc(-c2ccccc2)c1)c1ccc(F)cc1 [VI-8, (Z/E)-N-((2-(1H-imidazol-4-yl)ethylamino)(biphenyl-3-ylamino)methylene)-4-fluorobenzamide] | > 10 | <10 | >10 | – |
| O=C(/N=C(/NCCN1CCNC1=O)Nc1ccc(-c2ccccc2)cc1)c1cccc(Cl)c1 [IV-7, (Z/E)-N-((biphenyl-4-ylamino)(2-(2-oxoimidazolidin-1-yl)ethylamino)methylene)-3-chlorobenzamide] | – | >20 | >30 | > 30 |
| O=C(/N=C(/NCCc1c[nH]cn1)Nc1ccc2cc[nH]c2c1)c1cccc(Cl)c1 [Compound V-3, (Z/E)-N-((2-(1H-imidazol-4-yl)ethylamino)(1H-indol-6-ylamino)methylene)-3-chlorobenzamide] | – | >10 | <10 | > 20 |
| O=C(N=C(NCCc1c[nH]cn1)Nc1ccc(-c2ccccc2)cc1)c1cccc(F)c1 [II-8, (Z/E)-N-((2-(1H-imidazol-4-yl)ethylamino)(biphenyl-4-ylamino)methylene)-3-fluorobenzamide] | < 10 | >10 | >10 | – |

Reference: US8324258B2, “F1F0-ATPase inhibitors and related methods” (The Regents of the University of Michigan, priority 2007, dated 2012)
